Measurements taken from PMC9861858, “Stereoselective Synthesis and Antiproliferative Activities of Tetrafunctional Diterpene Steviol Derivatives” (International Journal of Molecular Sciences, 2023).
Converted amounts (≈) assume the structure as drawn. “Also recorded” adds a separate entry of the source.

Columns and labels:
HeLa cells = experiment: MTT antiproliferative assay, HeLa; format: cell-based, human; details: Homo sapiens, HeLa, 72 h, values <20% considered negligible, read-out: Growth inhibition (%) ± SEM, HeLa
Procedure: (§1) The in vitro antiproliferative activities of the synthesised aminotriols 5–18 against a panel of different human cancer cell lines of gynecological origin, including cervical (SiHA and HeLa), breast (MCF7 and MDA-MB-231), ovary (A2780) cancers and NIH/3T3 healthy fibroblasts, were assayed by the MTT method. Cisplatin, a clinically applied anticancer agent was used as a reference compound, and the results are summarised in Figure 3 and Table S1 in the Supplementary Materials.
(§2) The growth-inhibitory effects of the presented terpenes were determined by a standard MTT [3-(4,5-dimethylthiazol2-yl)-2,5-diphenyltetrazolium bromide] assay against […] human cancer cell lines (cervical cancer HeLa and SiHa cell lines, breast cancer MCF-7 and MDA-MB-231 and ovarian cancer A2780). Murine embryonal fibroblast cells (NIH/3T3) were used to determine selectivity. All cell lines were purchased from the European Collection of Cell Cultures (Salisbury, UK). The cells were cultivated in Eagle’s minimal essential medium supplemented with 10% fetal bovine serum, 1% non-essential amino acids, and 1% Antibiotic-Antimycotic complex (penicillin, streptomycin, amphotericin B) at 37 °C in a humidified atmosphere containing 5% CO2. All media and supplements were purchased from Lonza Group Ltd. (Basel, Switzerland). Cancer cells were seeded into 96-well plates (5000 cells/well) after an overnight incubation, and the test compounds were added at two different concentrations (10 μM and 30 μM) and incubated for another 72 h under cell-culturing conditions. Finally, 20 μL of a 5 mg/mL MTT solution was added to each well, and the contents were incubated for a further 4 h. The medium was removed, and the precipitated formazan crystals were dissolved in DMSO by shaking at 37 °C for 60 min. The absorbance was measured at 545 nm by using a microplate reader (SPECTROStar Nano, BMG Labtech, Offenburg, Germany). Clinically utilised anticancer agent cisplatin (Ebewe GmbH, Unterach, Austria) was included as a reference molecule. Calculations were performed using the GraphPad Prism 9 software (GraphPad Software Inc., San Diego, CA, USA).

SiHa cells = experiment: MTT antiproliferative assay, SiHa; format: cell-based, human; details: for inhibition at 10 µM / inhibition at 30 µM: Homo sapiens, SiHa, 72 h, values <20% considered negligible, read-out: Growth inhibition (%) ± SEM, SiHa
Procedure: as §1, §2

MCF-7 cells = experiment: MTT antiproliferative assay, MCF-7; format: cell-based, human; details: for inhibition at 10 µM / inhibition at 30 µM: Homo sapiens, 72 h, values <20% considered negligible, read-out: Growth inhibition (%) ± SEM, MCF-7; for inhibition at 10 µM: MCF7, 10 μM; for inhibition at 30 µM: MCF7, 30 μM
Procedure: as §1, §2

MDA-MB-231 cells = experiment: MTT antiproliferative assay, MDA-MB-231; format: cell-based, human; details: for inhibition at 10 µM / inhibition at 30 µM: Homo sapiens, 72 h, values <20% considered negligible, read-out: Growth inhibition (%) ± SEM, MDA-MB-231; for inhibition at 10 µM: MDA-MB-231, 10 μM; for inhibition at 30 µM: MDA-MB-231, 30 μM
Procedure: as §1, §2

A2780 cells = experiment: MTT antiproliferative assay, A2780; format: cell-based, human; details: for inhibition at 10 µM / inhibition at 30 µM: Homo sapiens, 72 h, values <20% considered negligible, read-out: Growth inhibition (%) ± SEM, A2780; for inhibition at 10 µM: A2780, 10 μM; for inhibition at 30 µM: A2780, 30 μM
Procedure: as §1, §2

NIH/3T3 fibroblasts = experiment: MTT assay on fibroblasts (selectivity); format: cell-based, murine; details: Mus musculus, 72 h, values <20% considered negligible, read-out: Growth inhibition (%) ± SEM, NIH/3T3; for inhibition at 10 µM: NIH3T3, 10 μM; for inhibition at 30 µM: NIH3T3, 30 μM
Procedure: as §1, §2

[1] = Kinetic aqueous solubility; format: physicochemical; details: phosphate buffered saline with 5% DMSO, aqueous with cosolvent or surfactant or cyclodextrin, kinetic from dmso stock; after 2 h, at 37 °C in PBS, pH 7.4, 5% DMSO; target concentration 500 μM; mean ± S.E.M, n = 3
Procedure: (§3) Filtrates and calibration solutions (5–500 μ M) of the kinetic solubility study and starting donor and acceptor solutions of the PAMPA-GI study were investigated by HPLC-DAD-MS. LC-MS analysis was performed using a Waters 2795 HPLC with a Waters 2487 DAD detector coupled with a Micromass Quattro Ultima TMPt quadrupol mass spectrometer equipped with an ESI source. Measurements were performed on a Waters XSelect C18 (150 × 4.6 mm; 3.5 μm) column with a […] eluent flow rate and the temperature set at 40 °C. The composition of eluent A was MilliQ water with 0.1% formic acid, and that of eluent B was an acetonitrile and MilliQ water mixture (95:5, v/v), also with 0.1% formic acid. The following linear gradient program was used: 0–6 min, 10–100% B; this was held for 3 min, then from 9.01 min on, back to the starting composition of 10% B–90% A. The injection volume was 10 μL for each sample. Chromatographic profiles were registered at dual wavelength, 220 and 240 nm. The mass spectrometer was used in negative ion mode for samples 2, 3 and 4b, and in positive ion mode for other samples. The operating parameters of the MS were: Mass range of m/z 150–700. Nitrogen gas flow rate was 350 L/h, temperature of 350 °C and pressure of 6 bar. The quadrupol temperature was 120 °C, and the capillary voltage was 2.5 kV. Fragmentor’s voltage of 60 V.
(§4) Intestinal (GI) permeability was determined by using an intestinal-specific parallel artificial membrane permeability assay (PAMPA-GI [36]]). […] All solutions were filtered by MultiScreen HTS Vacuum Manifold (Merck Ltd., Budapest, Hungary) after the incubation period. The target concentration was 500 μM for every sample investigated. The intestinal-specific effective permeability of the samples was determined by PAMPA-GI. To prepare starting solutions for a 96-well donor plate, 15 μLs of the 10 mM DMSO stock solution of investigation compounds and 285 μL pH 6.5 phosphate buffer solution were mixed. These solutions were left in a shaking incubator (300 rpm) at 25 °C for 1 h. Meanwhile, a 96-well acceptor plate was filled with 300 μL of pH 7.4 PBS buffer solution containing 5% DMSO. The intestinal-specific artificial membrane was prepared the following way: the hydrophobic filter material of the donor plate was coated with a mixture of phosphatidylcholine/cholesterol = 2:1 (5 μL, 4 % (w/v) in dodecane). After that, all donor wells were filled with 150 μL of the starting donor solutions, and they were carefully placed on the acceptor plate and incubated at 37 °C for 4 h. After the end of the incubation period the donor and acceptor plates were separated carefully. A total of 150 μL of the donor, acceptor and the starting donor solutions were sampled and analysed with HPLC-DAD-MS. The effective permeability and membrane retention of drugs were calculated using the following equations: Pe=−2.303/A·(t−τss)·1/1+rv·lg[−rv+(1+rv/1−MR)·]CD(t)/CD(0) MR=1−CD(t)/CD(0)−VA·CA(t)/VD·CD(0) where Pe is the effective permeability coefficient (cm/s), A is the filter area (0.3 cm^2), VD and VA are the volumes in the donor (0.15 cm^3) and acceptor phase (0.3 cm^3), t is the incubation time (s), τSS is the time to reach steady-state (s), CD(t) is the concentration of the compound in the donor phase at time point t (mol/cm^3), CD(0) is the concentration of the compound in the donor phase at time point zero (mol/cm^3), rv is the aqueous compartment volume ratio (VD/VA), MR is the membrane retention factor.

[2] = Intestinal-specific parallel artificial membrane permeability assay (PAMPA-GI); format: in vitro ADME; details: gradient pH system (pH donor 6.5 → pH acceptor 7.4) after 4 h, at 37 °C, mean ± S.E.M, n = 3
Procedure: as §3, §4

| SMILES | inhibition at 10 µM (HeLa cells) [%] | inhibition at 30 µM (HeLa cells) [%] | inhibition at 10 µM (SiHa cells) [%] | inhibition at 30 µM (SiHa cells) [%] | inhibition at 10 µM (MCF-7 cells) [%] | inhibition at 30 µM (MCF-7 cells) [%] | inhibition at 10 µM (MDA-MB-231 cells) [%] | inhibition at 30 µM (MDA-MB-231 cells) [%] | inhibition at 10 µM (A2780 cells) [%] | inhibition at 30 µM (A2780 cells) [%] | inhibition at 10 µM (NIH/3T3 fibroblasts) [%] | inhibition at 30 µM (NIH/3T3 fibroblasts) [%] | solubility kinetic at 2 h [1] [µM] | PAMPA-GI MR (membrane retention) [2] [%] | melting point [°C] | Papp at 4 h, 500 µM ([2]; PAMPA, read-out: PAMPA-GI Pe) [nm/s] | Antiproliferative effect on SiHa, in words (SiHa cells; 10 and 30 μM) | Antiproliferative effect / selectivity on MCF-7, in words (MCF-7 cells; 10 and 30 μM) | Antiproliferative effect / selectivity on MDA-MB-231, in words (MDA-MB-231 cells; 10 and 30 μM) | Antiproliferative effect on A2780, in words (A2780 cells; 10 and 30 μM) |
| --- | --- | --- | --- | --- | --- | --- | --- | --- | --- | --- | --- | --- | --- | --- | --- | --- | --- | --- | --- | --- |
| COC(=O)[C@]1(C)CCC[C@@]2(C)C3CC[C@]4(O)C[C@@]3(CCC21)[C@@H](O)[C@]4(O)CN[C@@H](C)c1ccc2ccccc2c1 (stereo partly drawn) [Compound 13, (4R,6aR,7R,8R,9S,11bS)-Methyl 7,8,9-Trihydroxy-4,11b-dimethyl-8-((((S)-1-(naphthalen-2-yl)ethyl)amino)methyl)tetradecahydro-6a,9-methanocyclohepta[a]naphthalene-4-carboxylate] | 94.5 ± 1.24 | 94.9 ± 1.29 | 93.8 ± 1.81 | 93.77 ± 0.41 | 95.74 ± 0.64 | 95.44 ± 0.85 | 93.33 ± 0.29 | 93.21 ± 0.46 | 96.64 ± 0.35 | 96.79 ± 0.2 | 72 ± 1.81 | 90.5 ± 1.31 | 11.9 ± 1.8 (≈ 6.38 µg/mL) | 92.6 ± 1.1 | 81 to 83 | – | – | – | – | – |
| COC(=O)[C@]1(C)CCC[C@@]2(C)[C@@H]3CCC4(O)C[C@@]3(CC[C@@H]21)[C@@H](O)[C@]4(O)CN[C@H](C)c1ccc(F)cc1 [Compound 11, (4R,4aS,6aR,7R,8R,11aS,11bS)-Methyl 8-((((R)-1-(4-Fluorophenyl)ethyl)amino)methyl)-7,8,9-trihydroxy-4,11b-dimethyltetradecahydro-6a,9-methanocyclohepta[a]naphthalene-4-carboxylate] | 95.4 ± 1.08 | 95.8 ± 1.11 | 93.66 ± 0.85 | 94.59 ± 0.49 | 96.23 ± 0.59 | 96.27 ± 0.65 | 93.66 ± 0.59 | 94.31 ± 0.51 | 97.06 ± 0.3 | 97.51 ± 0.22 | 44.4 ± 0.7 | 90.5 ± 1.16 | 145 ± 14.1 (≈ 73.2 µg/mL) | 22.4 ± 2.0 | 63 to 67 | 4.8 ± 0.5 | – | – | – | – |
| COC(=O)[C@]1(C)CCC[C@@]2(C)C3CC[C@]4(O)C[C@@]3(CCC21)[C@@H](O)[C@]41CN(Cc2ccccc2)CO1 (stereo partly drawn) [Compound 18, (4R,5’R,6aR,7R,9S,11bS)-Methyl 3’-Benzyl-7,9-dihydroxy-4,11b-dimethyldodecahydro-1H-spiro [6a,9-methanocyclohepta[a]naphthalene-8,5’-oxazolidine]-4-carboxylate] | < 20 | 41.1 ± 1.95 | < 20 | 66.1 ± 2.45 | < 20 | 95.18 ± 0.35 | < 20 | 87.7 ± 0.91 | < 20 | 58.5 ± 3.18 | < 20 | < 20 | 321 ± 88.5 (≈ 155 µg/mL) | 2.7 ± 0.4 | 123 to 125 | – | moderate activity | Selectivity for MCF-7 cells increased slightly | moderate activity; also recorded: smaller but also selective antiproliferative effect | moderate activity |
| COC(=O)[C@]1(C)CCC[C@@]2(C)C3CC[C@]4(O)C[C@@]3(CCC21)[C@@H](O)[C@]4(O)CNCc1cccc2ccccc12 (stereo partly drawn) [Compound 14, (4R,6aR,7R,8R,9S,11bS)-Methyl 7,8,9-Trihydroxy-4,11b-dimethyl-8-(((naphthalen-1-ylmethyl)amino)methyl)tetradecahydro-6a,9-methanocyclohepta[a]naphthalene-4-carboxylate] | 97.2 ± 0.92 | 98.14 ± 0.36 | 97.24 ± 0.39 | 96.7 ± 0.65 | 97.57 ± 0.19 | 97.66 ± 0.28 | 97.41 ± 0.21 | 96.46 ± 0.34 | 92.2 ± 3.33 | 96.81 ± 0.23 | 93.25 ± 0.51 | 97.34 ± 0.26 | 18.9 ± 2.4 (≈ 9.86 µg/mL) | 94.2 ± 2.0 | 138 to 140 | – | – | – | – | – |
